From ChEMBL document CHEMBL3588771, “Discovery of 5-Amino-N-(1H-pyrazol-4-yl)pyrazolo[1,5-a]pyrimidine-3-carboxamide Inhibitors of IRAK4” (ACS Med Chem Lett, 2015)

Experiments:
in vitro [1] = details: dog, MDCK
in vitro [2] = details: pig, LLC-PK1
in vivo [3] = details: rat, plasma, iv, 0.5 mg/kg
in vivo [4] = details: rat, po, 1 mg/kg

SMILES	Papp (in vitro [1])	Papp (in vitro [2])	clearance (in vivo [3])	bioavailability (in vivo [4])
Cn1cc(NC(=O)c2cnn3ccc(N[C@H]4CCCC[C@H]4N)nc23)c(C(N)=O)n1	< 2 ×10⁻⁶ cm/s	–	–	–
Cn1cc(NC(=O)c2cnn3ccc(N[C@@H]4CCCC[C@@H]4N)nc23)c(C(N)=O)n1	–	2 ×10⁻⁶ cm/s	56 mL/min/kg	0%
Cn1cc(NC(=O)c2cnn3ccc(N[C@@H]4CCCC[C@@H]4N)nc23)c(C#N)n1	17 ×10⁻⁶ cm/s	–	–	–
Cn1cc(NC(=O)c2cnn3ccc(N[C@@H]4CCCC[C@@H]4N)nc23)c(C(F)(F)F)n1	16 ×10⁻⁶ cm/s	–	98 mL/min/kg	5%
Cn1cc(NC(=O)c2cnn3ccc(N[C@@H]4CCCC[C@@H]4N)nc23)c(C(F)F)n1	13 ×10⁻⁶ cm/s	–	–	–
Cn1cc(NC(=O)c2cnn3ccc(N[C@@H]4CCCC(F)(F)[C@@H]4N)nc23)c(C(F)F)n1	29 ×10⁻⁶ cm/s	–	29 mL/min/kg	46%
Cn1cc(NC(=O)c2cnn3ccc(N[C@@H]4CCC(F)(F)C[C@@H]4N)nc23)c(C(F)(F)F)n1	26 ×10⁻⁶ cm/s	–	–	–
Cn1cc(NC(=O)c2cnn3ccc(N4CC[C@H](F)[C@@H](N)C4)nc23)c(C(F)(F)F)n1	28 ×10⁻⁶ cm/s	–	–	–
